According to ChEMBL document CHEMBL1154247, “Biscarpamontamines A and B, an aspidosperma-iboga bisindole alkaloid and an aspidosperma-aspidosperma bisindole alkaloid, from Tabernaemontana sphaerocarpa” (J Nat Prod, 2009):

Key:
Assay type in all cases: functional, cell-based
[1] = system: HL-60; experiment: Cytotoxicity against human HL60 cells after 48 hrs by MTT assay; conditions: HL-60, 48 h
[2] = system: RPMI-8226; experiment: Cytotoxicity against human RPMI8226 cells after 48 hrs by MTT assay; conditions: RPMI-8226, 48 h
[3] = system: NCI-H226; experiment: Cytotoxicity against human NCI-H226 cells after 48 hrs by MTT assay; conditions: NCI-H226, 48 h
[4] = system: MCF7; experiment: Cytotoxicity against human MCF7 cells after 48 hrs by MTT assay; conditions: MCF7, 48 h
[5] = system: HCT-116; experiment: Cytotoxicity against human HCT116 cells after 48 hrs by MTT assay; conditions: HCT-116, 48 h

Compound	IC50 [1] [µM]	IC50 [2] [µM]	IC50 [3] [µM]	IC50 [4] [µM]	IC50 [5] [µM]
CC[C@]1(O)C[C@H]2CN(CCc3c([nH]c4ccccc34)[C@@](C(=O)OC)(c3cc4c(cc3OC)N(C=O)[C@H]3[C@@](O)(C(=O)OC)[C@H](OC(C)=O)[C@]5(CC)C=CCN6CC[C@]43[C@@H]65)C2)C1 [VINCRISTINE]	0.00087				
CC[C@]1(O)C[C@@H]2CN(CCc3c([nH]c4ccccc34)[C@@](C(=O)OC)(c3cc4c(cc3OC)N(C)[C@H]3[C@@](O)(C(=O)OC)[C@H](OC(C)=O)[C@]5(CC)C=CCN6CC[C@]43[C@@H]65)C2)C1 [VINBLASTINE]	0.0016				
CC[C@H]1C[C@H]2C[C@@]3(C(=O)OC)c4c(c5cc(OC)ccc5n4CC4=C[C@@]5(CCO)CC(C(=O)OC)=C6Nc7ccccc7[C@@]67CCN(C4)[C@@H]57)CCN([C@@H]2O)[C@@H]13 [BISCARPAMONTAMINE A]	12.2	27.9	16.9	25.3	14
